According to PubChem BioAssay AID2060607 (Molecular Pharmacology Branch, DTP, NCI, 2025):

System: 876862-298-R-J1-PDC complex spheroids, viability % test/control
Experiment: Anticancer human tumor 876862-298-R-J1-PDC patient-derived endometrial carcinoma cell line growth inhibition [CLK]
Conditions: for IC50: curve of first compound; for viability, T/C: stronger effect = lower value; active = viability on the fitted dose curve at most 10% of control; inactive = the rest
In short: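 Patient-derived tumor cells grown as complex spheroids with HUVEC endothelial cells and mesenchymal stem cells, treated with drug combinations. Concentrations descend in half-log steps from near clinical Cmax, or from 10 microM if Cmax unknown.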

[1] = second compound 0.0316 µM, first compound 0.0316 µM
[2] = second compound 0.0316 µM, first compound 0.1 µM
[3] = second compound 0.0316 µM, first compound 0.316 µM
[4] = second compound 0.0316 µM, first compound 1 µM
[5] = second compound 0.0316 µM, first compound 3.16 µM
[6] = second compound 0.0316 µM, first compound 10 µM
[7] = second compound 0.1 µM, first compound 0.0316 µM
[8] = second compound 0.1 µM, first compound 0.1 µM
[9] = second compound 0.1 µM, first compound 0.316 µM
[10] = second compound 0.1 µM, first compound 1 µM
[11] = second compound 0.1 µM, first compound 3.16 µM
[12] = second compound 0.1 µM, first compound 10 µM
[13] = second compound 0.316 µM, first compound 0.0316 µM
[14] = second compound 0.316 µM, first compound 0.1 µM
[15] = second compound 0.316 µM, first compound 0.316 µM
[16] = second compound 0.316 µM, first compound 1 µM
[17] = second compound 0.316 µM, first compound 3.16 µM
[18] = second compound 0.316 µM, first compound 10 µM
[19] = second compound 1 µM, first compound 0.0316 µM
[20] = second compound 1 µM, first compound 0.1 µM
[21] = second compound 1 µM, first compound 0.316 µM
[22] = second compound 1 µM, first compound 1 µM
[23] = second compound 1 µM, first compound 3.16 µM
[24] = second compound 1 µM, first compound 10 µM
[25] = second compound 3.16 µM, first compound 0.0316 µM
[26] = second compound 3.16 µM, first compound 0.1 µM
[27] = second compound 3.16 µM, first compound 0.316 µM
[28] = second compound 3.16 µM, first compound 1 µM
[29] = second compound 3.16 µM, first compound 3.16 µM
[30] = second compound 3.16 µM, first compound 10 µM
[31] = second compound 10 µM, first compound 0.0316 µM
[32] = second compound 10 µM, first compound 0.1 µM
[33] = second compound 10 µM, first compound 0.316 µM
[34] = second compound 10 µM, first compound 1 µM
[35] = second compound 10 µM, first compound 3.16 µM
[36] = second compound 10 µM, first compound 10 µM
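Note: spheroids exposed to drugs for 7 days before readout.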
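Throughout, for viability, T/C: 100% = DMSO vehicle control wells.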

COc1ccc([C@@H](O)c2cc(-c3ncnc4cc(N5CCOCC5)ccc34)c(F)cc2Cl)nn1 + CNC(=O)c1ccc(Nc2nc(OC3CCCC3)c3c(-c4ccc5nc(C)oc5c4)c[nH]c3n2)c(OC)c1
< 31.6 nM: IC50 (second compound 0.316 µM) | IC50 (second compound 1 µM) | IC50 (second compound 3.16 µM) | IC50 (second compound 10 µM)
3010 nM: IC50 (second compound 0.0316 µM)
inactive: viability, T/C [1] 72% | viability, T/C [2] 84.4% | viability, T/C [3] 69.5% | viability, T/C [4] 66.1% | viability, T/C [5] 49.4% | viability, T/C [6] 30.5% | viability, T/C [7] 50.6% | viability, T/C [8] 49.3% | viability, T/C [9] 48.7% | viability, T/C [10] 38.8% | viability, T/C [11] 34% | viability, T/C [12] 26.8% | viability, T/C [13] 47% | viability, T/C [14] 39.7% | viability, T/C [15] 47.7% | viability, T/C [16] 33.2% | viability, T/C [17] 27.1% | viability, T/C [18] 21.6% | viability, T/C [19] 31.9% | viability, T/C [20] 28.8% | viability, T/C [21] 30.4% | viability, T/C [22] 26.8% | viability, T/C [23] 21.1% | viability, T/C [24] 15.5% | viability, T/C [25] 25% | viability, T/C [26] 21.2% | viability, T/C [27] 18.5% | viability, T/C [28] 20.3% | viability, T/C [29] 17.2% | viability, T/C [30] 11.9% | viability, T/C [31] 23.2% | viability, T/C [32] 19.2% | viability, T/C [33] 17.9% | viability, T/C [34] 16.3% | viability, T/C [35] 17% | viability, T/C [36] 10.2%
81.2 nM: IC50 (second compound 0.1 µM)

COc1cccc2c1C(=O)c1c(O)c3c(c(O)c1C2=O)CC(O)(C(=O)CO)CC3OC1CC(N)C(O)C(C)O1 (centres undefined) + CNC(=O)c1ccc(Nc2nc(OC3CCCC3)c3c(-c4ccc5nc(C)oc5c4)c[nH]c3n2)c(OC)c1
< 31.6 nM: IC50 (second compound 0.0316 µM) | IC50 (second compound 0.1 µM) | IC50 (second compound 0.316 µM) | IC50 (second compound 1 µM) | IC50 (second compound 3.16 µM) | IC50 (second compound 10 µM)
active: viability, T/C [3] 6.58% | viability, T/C [4] 5.25% | viability, T/C [5] 0.7% | viability, T/C [6] 4.06% | viability, T/C [9] 6.67% | viability, T/C [10] 4.08% | viability, T/C [11] 0.67% | viability, T/C [12] 3.82% | viability, T/C [14] 7.88% | viability, T/C [15] 5.6% | viability, T/C [16] 2.96% | viability, T/C [17] 0.81% | viability, T/C [18] 4.75% | viability, T/C [20] 5.96% | viability, T/C [21] 4.62% | viability, T/C [22] 2.24% | viability, T/C [23] 1.51% | viability, T/C [24] 5.96% | viability, T/C [26] 6.62% | viability, T/C [27] 3.35% | viability, T/C [28] 1.57% | viability, T/C [29] 1.6% | viability, T/C [30] 6.55% | viability, T/C [32] 5.47% | viability, T/C [33] 3.35% | viability, T/C [34] 1.56% | viability, T/C [35] 2.15% | viability, T/C [36] 7.11%
inactive: viability, T/C [1] 27.4% | viability, T/C [2] 11.2% | viability, T/C [7] 22.3% | viability, T/C [8] 10.5% | viability, T/C [13] 21.7% | viability, T/C [19] 15.3% | viability, T/C [25] 13% | viability, T/C [31] 12.1%
